From patent publication US20240158430A1, “NOVEL COMPOUND OR SALT THEREOF, AND ANTITUMOR ACTIVATOR CONTAINING SAME AS ACTIVE INGREDIENT” (AKITA UNIVERSITY, priority 2021, published 2024)
Like-named read-outs stand apart in the source and are kept apart here.

Tests used:
[1] = system: colorectal cancer cell line HCT116; experiment: Cell growth inhibitory activity, HCT116; assay type: cell-based
Description: (§1) The cell growth inhibitory activity against a colorectal cancer cell line HCT116 was measured. As an index of cell growth inhibitory activity, a concentration at which cell growth was inhibited by 50% as compared with a control (IC50) was used. The method is as follows. HCT116 was added to a 6-well plate by 5×10^4, compounds having various concentrations were added after 24 hours, and the number of cells was counted after 72 hours of culture. As the control, DMSO was used in an amount equal to the amount added in accordance with the addition concentration of the highest-concentration compound. The number of cells at each concentration relative to the control was expressed as a percentage.
(§2) The method is as described above.
(§3) The cell growth inhibitory activity (IC50) of each of curcumin, GO-Y199, and GO-Y206 against the colorectal cancer cell lines DLD-1 and HCT116 and the gastric cancer cell lines KATO III and H-111-TC was measured. The method is as described above.

[2] = system: breast cancer cell line HCC38; experiment: Cell growth inhibitory activity, HCC38; assay type: cell-based
Description: [The source words this procedure for another cell line and reports this cell line under the same test.] as §1, §2

[3] = system: breast cancer cell line HCC70; experiment: Cell growth inhibitory activity, HCC70; assay type: cell-based
Description: [The source words this procedure for another cell line and reports this cell line under the same test.] as §1, §2

[4] = system: colorectal cancer cell line DLD-1; experiment: Cell growth inhibitory activity, DLD-1; assay type: cell-based
Description: as §1, §2, §3

[5] = system: colorectal cancer cell line HT29; experiment: Cell growth inhibitory activity, HT29; assay type: cell-based; conditions: Table 4; 72 hours
[6] = system: pancreatic cancer cell line ASPC-1; experiment: Cell growth inhibitory activity, ASPC-1; assay type: cell-based; conditions: Table 7
Description: [The source words this procedure for another cell line and reports this cell line under the same test.] as §1, §2

[7] = system: cutaneous T-cell lymphoma cell line HUT78; experiment: Cell growth inhibitory activity, HUT78; assay type: cell-based; conditions: Table 10
Description: [The source words this procedure for another cell line and reports this cell line under the same test.] as §1, §2

[8] = system: vascular endothelial cells HUVEC-R resistant to Ki8751; experiment: Angiogenesis inhibitory activity, HUVEC-R; assay type: cell-based; conditions: Table 11; number of cells after 72 hours
Description: HUVEC-R was cultured in the presence of each compound using an EGMTM-2 Bullet Kit (Takara Bio Inc., Otsu, Japan), and the number of cells was measured after 72 hours. In addition, IC50 was determined from the results.

β-catenin = experiment: Influence on β-catenin, ELISA; assay type: cell-based; conditions: control 11.5±2.3
Description: The influence of GO-Y199 on NF-kB (p65) was investigated. The method is as follows. 3×10^6 cells of the HCT116 cell line were added to a 10-cm plate, 2 μM of GO-Y199 was added after 24 hours, the cells were collected after 24 hours, embedded in iPGell (GenOStaff), and fixed in formalin, paraffin blocks were then prepared, and immuno-histochemistry was performed with an anti-NF-kB (p65) antibody. In addition, 2 μM and 5 μM of GO-Y199 were added, lysates were collected after 24 hours, and an expression level of NF-kB (p65) was analyzed using an ELISA-plate (NF-kBp65 (pS536) SimpleStep-ELISA-kit, Abcam). An amount of protein was corrected by the absorbance of A 280 nm. The upper part of FIG. 14 indicates photographs of the control group and the GO-Y199 (2 μM)-added group after 24 hours. The lower part of FIG. 14 indicates results of the t-test of these groups after 24 hours. FIG. 15 indicates the comparison results of the NF-kB inhibitory effect of GO-Y199 (2 μM, 5 μM)-added groups with respect to the control group.
The influence of GO-Y199 on β-catenin was investigated. The method is as described above. Immunohistochemistry was performed with an anti-β-catenin antibody. Protein quantification was performed using an ELISA plate (proteintech). FIG. 17 indicates photographs of the control group and the GO-Y199 (2 μM)-added group after 24 hours. […]

[9] = system: FOXP3-positive regulatory T cells; experiment: Regulatory T cell inhibitory activity; assay type: cell-based, mouse; conditions: 0.3 μM; control 12.8%
Description: Naive CD4^+ T cells were collected from the spleen of a mouse using a CD4^+CD62L^hi T Cell Isolation Kit (Miltenyi Biotec). 0.5×10^6 cells/mL of the collected T cells were added to a RPMI 1640 medium to which penicillin/streptomycin (5,000 units/mL), 10% fetal bovine serum, and 50 μM of 2-mercaptoethanol were added. Subsequently, 1 μg/mL of anti-CD3 antibody (eBioscience) was added to the medium, and 1 μg/ml of anti-CD28 antibody (eBioscience) was further added thereto. The medium was then cultured at 37° C. for 3 days. Then, TGF-β1 (2 ng/mL) was added to the medium and cultured for 24 hours. After that, a FOXP3 Staining Buffer Kit (eBioscience) was used to fix the cells and treat cell membranes, and FOXP3 in the nuclei was stained. The stained cells were measured using a BD LSRFortessa™ (BD Bioscience) flow cytometer, and the obtained data was analyzed with FlowJo (Tree-Star version).

MSTO-211H cells = experiment: Antitumor effect on malignant mesothelioma cells, animal model; assay type: in vivo, nude mice
Description: An animal model was used to investigate the antitumor effect of GO-Y199 on malignant mesothelioma cells. The method is as follows. 2.8×10^6 MSTO-211H cells were intraperitoneally transplanted into each of 5 nude mice. From Day 5, 43 μL of 100 mM GO-Y199 in DMSO was diluted to 500 μL with PBS and intraperitoneally administered to the mice (equivalent to 5 mg of GO-Y199). As a control group, a DMSO-PBS solution having the equivalent concentration was intraperitoneally administered to each of four nude mice to which MSTO-211H cells were intraperitoneally transplanted in the same manner. The administration was performed 5 times in total at intervals of 5 days. After 30 days, the mice were sacrificed, necropsied, and analyzed.

## COCOc1cc(/C=C/C(=O)CC(SCCOCCOCCOCCOCc2cn([C@@H]3O[C@H](CO)[C@@H](O[C@@H]4O[C@H](CO)[C@H](O)[C@H](O)[C@H]4O)[C@H](O)[C@H]3O)nn2)c2cc(OCOC)cc(OCOC)c2)cc(OCOC)c1 (stereo partly shown) [GO-Y199]
[1]; Table 3, HCT116, cell count after 72 hours of culture vs DMSO control, read-out: IC50
  IC50: 0.43 µM
[1]; Table 5, ratio of IC50
  GO-Y199 vs GO-Y030 (IC50 comparison), HCT-116: 0.65
  GO-Y199 vs curcumin (IC50 comparison), HCT-116: 0.029
[1]; Table 6, read-out: IC50 (μM) HCT116
  IC50: 0.98 µM
[1]; read-out: IC50 HCT-116, Table 4, 72 hours
  IC50: 0.46 µM
[2]; Table 4, 72 hours
  IC50: 1050 nM
[2]; Table 5, ratio of IC50
  GO-Y199 vs GO-Y030 (IC50 comparison), HCC38: 0.58
[3]; Table 4, 72 hours
  IC50: 540 nM
[3]; Table 5, ratio of IC50
  GO-Y199 vs GO-Y030 (IC50 comparison), HCC70: 0.24
[4]; Table 4, 72 hours, read-out: IC50 DLD-1
  IC50: 0.26 µM
[4]; Table 5, ratio of IC50
  GO-Y199 vs GO-Y030 (IC50 comparison), DLD-1: 0.36
  GO-Y199 vs curcumin (IC50 comparison), DLD-1: 0.014
[4]; Table 6, read-out: IC50 (μM) DLD-1
  IC50: 0.85 µM
[5]
  IC50: 750 nM
[6]
  IC50: 1.03 µM
[7]
  IC50: 0.84 µM
[8]
  IC50: 0.96 µM
β-catenin; 2 μM
  relative expression level of β-catenin: 2.8±0.8
β-catenin; 5 μM
  relative expression level of β-catenin: 3.9±1.1
[9]
  induction ratio of FOXP3-positive regulatory T cells: 2.22%
MSTO-211H cells; 5 mg i.p., 5 times at intervals of 5 days, after 30 days, control 75%
  animals with microscopic peritoneal disseminated lesions: 80%
MSTO-211H cells; 5 mg i.p., 5 times, after 30 days, control 6 to 13 mm
  size (maximum diameter) of disseminated nodule: 5 mm
MSTO-211H cells; 5 mg i.p., 5 times, after 30 days, control 100%
  animals with disseminated nodule of maximum diameter exceeding 5 mm: 20%
MSTO-211H cells; control filled with tumor cells
  pathologic analysis, inside of the disseminated nodule: necrotic
MSTO-211H cells; not observed in control group
  tumor formation at the puncture site: one animal
